{"source": "paper PMC7391767", "about": "“Molecular mechanisms underlying menthol binding and activation of TRPM8 ion channel” (Nature Communications, 2020)", "format_in_all_cases": "cell-based", "key": {"wild-type TRPM8": {"target": "T1, wild-type TRPM8 (Mus musculus, UniProt Q8R4D5)", "T1 construct": "expressed in transfected cells; host or cells: HEK293T", "experiment": "whole-cell patch-clamp recording of ligand activation", "procedure": "Murine TRPM8 was used in this study. Point mutations were made by Fast Mutagenesis Kit V2 (SBS Genetech). Primers used to generate point mutations are summarized in Supplementary Table 2.\nCells were transiently transfected with cDNA constructs by Lipofectamine 3000 (Life Technologies) following the manufacturer’s protocol. Patch-clamp recordings were performed 1–2 days after transfection.\n(§1) Patch-clamp recordings were performed with a HEKA EPC10 amplifier controlled by PatchMaster software (HEKA). Whole-cell recordings were performed at ±80 mV. Patch pipettes were prepared from borosilicate glass and fire-polished to resistance of ~4 MΩ. For whole-cell recording, serial resistance was compensated by 60%. For single-channel recordings, patch pipettes were fire-polished to a higher resistance of 6-to-10 MΩ and then recorded in the inside-out configuration. To maximize the chance of obtaining a patch with only one channel, single-channel recordings were performed about 8 h after transfection. A solution with 130 mM NaCl, 10 mM glucose, 0.2 mM EDTA, and 3 mM HEPES (pH 7.2) was used in both bath and pipette for either whole-cell or single-channel recordings. Membrane potential was clamped at +80 mV for single-channel recordings. Current was sampled at 10 kHz and filtered at 2.9 kHz. All recordings were performed at room temperature (22 °C) with the maximum variation of 1 °C.\n(§2) Ligands such as menthol and its analogs were perfused to membrane patch by a gravity-driven system (RSC-200, Bio-Logic). Bath and ligand solution were delivered through separate tubes to minimize the mixing of solutions. Patch pipette was placed in front of the perfusion tube outlet.\nData from whole-cell recordings were analyzed in Igor Pro version 6.1 (WaveMatrix). EC50 values were derived from fitting a Hill equation to the concentration–response relationship. […] To distinguish these possibilities, dissociation constant (Kd) for ligand binding was estimated assuming the following gating scheme:1 C0↔KdC1↔LO, where L is the equilibrium constant for the final closed-to-open transition."}, "TRPM8 L843A": {"target": "T2, TRPM8 L843A (Mus musculus, UniProt Q8R4D5, L843A)", "T2 construct": "expressed in transfected cells; host or cells: HEK293T", "T2 sequence (Q8R4D5 whole entry L843A)": "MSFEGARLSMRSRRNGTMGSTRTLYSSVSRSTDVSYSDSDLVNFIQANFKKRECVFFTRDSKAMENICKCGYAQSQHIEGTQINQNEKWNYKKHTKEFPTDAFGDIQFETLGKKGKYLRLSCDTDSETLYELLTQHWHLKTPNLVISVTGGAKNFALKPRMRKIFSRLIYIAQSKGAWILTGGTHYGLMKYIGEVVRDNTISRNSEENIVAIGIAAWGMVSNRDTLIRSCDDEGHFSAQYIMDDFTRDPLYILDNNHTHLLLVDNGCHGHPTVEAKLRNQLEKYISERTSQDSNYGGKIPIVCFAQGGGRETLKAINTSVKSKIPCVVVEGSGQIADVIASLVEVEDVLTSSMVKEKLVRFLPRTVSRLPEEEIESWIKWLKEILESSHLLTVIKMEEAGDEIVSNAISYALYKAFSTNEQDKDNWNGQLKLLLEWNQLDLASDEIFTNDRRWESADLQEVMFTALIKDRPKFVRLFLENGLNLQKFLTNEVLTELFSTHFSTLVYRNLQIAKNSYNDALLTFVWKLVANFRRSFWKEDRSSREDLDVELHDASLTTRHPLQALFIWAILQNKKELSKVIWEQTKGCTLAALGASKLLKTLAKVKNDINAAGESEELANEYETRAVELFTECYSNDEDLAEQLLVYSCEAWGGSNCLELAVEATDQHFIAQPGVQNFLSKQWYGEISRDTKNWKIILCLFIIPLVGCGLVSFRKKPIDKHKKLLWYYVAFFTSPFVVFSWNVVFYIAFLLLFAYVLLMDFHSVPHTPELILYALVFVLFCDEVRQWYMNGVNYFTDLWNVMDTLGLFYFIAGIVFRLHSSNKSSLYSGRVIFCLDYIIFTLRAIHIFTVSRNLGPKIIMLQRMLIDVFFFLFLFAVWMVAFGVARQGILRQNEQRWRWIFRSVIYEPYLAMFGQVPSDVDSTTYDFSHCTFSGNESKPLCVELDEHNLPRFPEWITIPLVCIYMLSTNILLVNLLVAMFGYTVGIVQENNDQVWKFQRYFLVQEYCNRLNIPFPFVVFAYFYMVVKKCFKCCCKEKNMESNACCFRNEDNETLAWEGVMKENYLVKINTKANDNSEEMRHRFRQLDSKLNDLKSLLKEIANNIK", "experiment": "whole-cell patch-clamp and thermodynamic mutant cycle analysis", "procedure": "(§3) Murine TRPM8 was used in this study. Point mutations were made by Fast Mutagenesis Kit V2 (SBS Genetech). Primers used to generate point mutations are summarized in Supplementary Table 2. All mutations were confirmed by sequencing.\n(§4) HEK293T cells purchased from Kunming Cell Bank, Kunming Institute of Zoology, Chinese Academy of Sciences (ATCC, CRL-3216) were cultured in Dulbecco’s modified Eagle’s medium supplemented with 20 mM L-glutamine and 10% fetal bovine serum. Cells were transiently transfected with cDNA constructs by Lipofectamine 3000 (Life Technologies) following the manufacturer’s protocol. Patch-clamp recordings were performed 1–2 days after transfection.\nas §1, §2\n(§5) Data from whole-cell recordings were analyzed in Igor Pro version 6.1 (WaveMatrix). EC50 values were derived from fitting a Hill equation to the concentration–response relationship. Changes in EC50 by point mutation may be caused by either perturbation of ligand bind or channel gating or both. To distinguish these possibilities, dissociation constant (Kd) for ligand binding was estimated assuming the following gating scheme:1 C0↔KdC1↔LO, where L is the equilibrium constant for the final closed-to-open transition.\n(§6) To perform thermodynamic cycle analysis, Kd values of four channel-ligand combinations (WT channel, menthol: Kd _1; Mutant channel, menthol: Kd _2; WT channel, menthol analog: Kd _3; Mutant channel, menthol analog: Kd _4) were determined separately. The strength of coupling was determined by the coupling energy (kT multiplied by LnΩ, where k is the Boltzmann constant and T is temperature in Kelvin). LnΩ was calculated by Eq. (2) as[51]2 LnΩ=LnKd_1⋅Kd_4/Kd_2⋅Kd_3."}, "TRPM8 L843V": {"target": "T3, TRPM8 L843V (Mus musculus, UniProt Q8R4D5, L843V)", "T3 construct": "expressed in transfected cells; host or cells: HEK293T", "T3 sequence (Q8R4D5 whole entry L843V)": "as the sequence (Q8R4D5 whole entry L843A) above, with A843V counted along it", "experiment": "whole-cell patch-clamp and thermodynamic mutant cycle analysis", "procedure": "as §3, §4, §1, §2, §5, §6"}, "TRPM8 F839A": {"target": "T4, TRPM8 F839A (Mus musculus, UniProt Q8R4D5, F839A)", "T4 construct": "expressed in transfected cells; host or cells: HEK293T", "T4 sequence (Q8R4D5 whole entry F839A)": "as the sequence (Q8R4D5 whole entry L843A) above, with F839A, A843L counted along it", "experiment": "whole-cell patch-clamp and thermodynamic mutant cycle analysis", "procedure": "as §3, §4, §1, §2, §5, §6"}, "TRPM8 I846V": {"target": "T5, TRPM8 I846V (Mus musculus, UniProt Q8R4D5, I846V)", "T5 construct": "expressed in transfected cells; host or cells: HEK293T", "T5 sequence (Q8R4D5 whole entry I846V)": "as the sequence (Q8R4D5 whole entry L843A) above, with A843L, I846V counted along it", "experiment": "whole-cell patch-clamp and thermodynamic mutant cycle analysis", "procedure": "as §3, §4, §1, §2, §5, §6"}, "TRPM8 L843I": {"target": "T6, TRPM8 L843I (Mus musculus, UniProt Q8R4D5, L843I)", "T6 construct": "expressed in transfected cells; host or cells: HEK293T", "T6 sequence (Q8R4D5 whole entry L843I)": "as the sequence (Q8R4D5 whole entry L843A) above, with A843I counted along it", "experiment": "whole-cell patch-clamp and thermodynamic mutant cycle analysis", "procedure": "as §3, §4, §1, §2, §5, §6"}, "TRPM8 Y745F": {"target": "T7, TRPM8 Y745F (Mus musculus, UniProt Q8R4D5, Y745F)", "T7 construct": "expressed in transfected cells; host or cells: HEK293T", "T7 sequence (Q8R4D5 whole entry Y745F)": "as the sequence (Q8R4D5 whole entry L843A) above, with Y745F, A843L counted along it", "experiment": "whole-cell patch-clamp and thermodynamic mutant cycle analysis", "procedure": "as §3, §4, §1, §2, §5, §6"}, "TRPM8 V775A": {"target": "T8, TRPM8 V775A (Mus musculus, UniProt Q8R4D5, V775A)", "T8 construct": "expressed in transfected cells; host or cells: HEK293T", "T8 sequence (Q8R4D5 whole entry V775A)": "as the sequence (Q8R4D5 whole entry L843A) above, with V775A, A843L counted along it", "experiment": "whole-cell patch-clamp and thermodynamic mutant cycle analysis", "procedure": "as §3, §4, §1, §2, §5, §6"}, "[1]": {"settings": "R(kcal/K/mol) 1.99E-03, T 2.97E+02, menthol vs labelled analog"}, "[2]": {"settings": "mutant cycle menthol vs labelled analog"}}, "note": "Several values for one entry are separate records, joined by “and”; a condition that tells them apart may be missing. Equal entries are not always repeated. Entries after “also recorded” stand apart in the source; their conditions may differ. Where two headings read alike, the source gives them in different places."}
{"compound": "OC1CCCCC1", "note": "[cyclohexanol]", "values": [{"measurement": "activation of TRPM8 channel", "setting": "wild-type TRPM8; up to 5 mM", "value": "failed to open; also recorded: cannot activate"}]}
{"compound": "C=C(C)[C@@H]1CC[C@@H](C)C[C@H]1O", "note": "[isopulegol]", "values": [{"measurement": "Ratio X2 (Kd menthol / Kd labelled analog)", "setting": "TRPM8 L843A", "value": 34.2166}, {"measurement": "Energy, Ave", "setting": "TRPM8 L843A; [1]", "value": -2.14}, {"measurement": "Omega(X1/X2)", "setting": "TRPM8 L843A; menthol vs labelled analog", "value": 0.0264}, {"measurement": "Coupling Energy", "setting": "TRPM8 L843A; [2]", "value": 3.63, "unit": "kT"}, {"measurement": "Ratio X2 (Kd menthol / Kd labelled analog)", "setting": "TRPM8 L843V", "value": 0.4038}, {"measurement": "Energy, Ave", "setting": "TRPM8 L843V; [1]", "value": 0.48}, {"measurement": "Omega(X1/X2)", "setting": "TRPM8 L843V; menthol vs labelled analog", "value": 2.24}, {"measurement": "Coupling Energy", "setting": "TRPM8 L843V; [2]", "value": 0.81, "unit": "kT"}, {"measurement": "Ratio X2 (Kd menthol / Kd labelled analog)", "setting": "TRPM8 F839A", "value": 1.37}, {"measurement": "Energy, Ave", "setting": "TRPM8 F839A; [1]", "value": -0.25}, {"measurement": "Omega(X1/X2)", "setting": "TRPM8 F839A; menthol vs labelled analog", "value": 0.66}, {"measurement": "Coupling Energy", "setting": "TRPM8 F839A; [2]", "value": 0.42, "unit": "kT"}, {"measurement": "L (equilibrium constant between closed and open states upon ligand binding), Ave", "setting": "TRPM8 I846V", "value": 41.287}, {"measurement": "Ratio X2 (Kd menthol / Kd labelled analog)", "setting": "TRPM8 I846V", "value": 0.02928}, {"measurement": "concentration–response curve value, ave", "setting": "TRPM8 I846V; 100 microM", "value": 0.5053}, {"measurement": "concentration–response curve value, single recording", "setting": "TRPM8 I846V; 100 microM", "value": "0.5194 and 0.5746 and 0.5283 and 0.3989"}, {"measurement": "concentration–response curve value, ave", "setting": "TRPM8 I846V; 200 microM", "value": 0.8162}, {"measurement": "concentration–response curve value, single recording", "setting": "TRPM8 I846V; 200 microM", "value": "0.818 and 0.8632 and 0.783 and 0.8004"}, {"measurement": "concentration–response curve value, ave", "setting": "TRPM8 I846V; 500 microM", "value": 0.9296}, {"measurement": "concentration–response curve value, single recording", "setting": "TRPM8 I846V; 500 microM", "value": "0.9586 and 0.8698 and 0.9387 and 0.9513"}, {"measurement": "concentration–response curve value, ave", "setting": "TRPM8 I846V; 1000 microM", "value": 0.9432}, {"measurement": "concentration–response curve value, single recording", "setting": "TRPM8 I846V; 1000 microM", "value": "0.9846 and 0.8706 and 0.9587 and 0.9591"}, {"measurement": "concentration–response curve value, ave", "setting": "TRPM8 I846V; 5000 microM", "value": 0.9595}, {"measurement": "concentration–response curve value, single recording", "setting": "TRPM8 I846V; 5000 microM", "value": "0.9671 and 0.952"}, {"measurement": "Energy, Ave", "setting": "TRPM8 I846V; [1]", "value": 2.02}, {"measurement": "Kd", "setting": "TRPM8 I846V; calculated from concentration–response curves, read-out: Kd, Ave", "value": 4090, "unit": "µM"}, {"measurement": "Omega(X1/X2)", "setting": "TRPM8 I846V; menthol vs labelled analog", "value": 30.85}, {"measurement": "Coupling Energy", "setting": "TRPM8 I846V; [2]", "value": 3.43, "unit": "kT"}, {"measurement": "Ratio X2 (Kd menthol / Kd labelled analog)", "setting": "TRPM8 L843I", "value": 0.229}, {"measurement": "Energy, Ave", "setting": "TRPM8 L843I; [1]", "value": 0.81}, {"measurement": "Omega(X1/X2)", "setting": "TRPM8 L843I; menthol vs labelled analog", "value": 3.95}, {"measurement": "Coupling Energy", "setting": "TRPM8 L843I; [2]", "value": 1.37, "unit": "kT"}, {"measurement": "Ratio X2 (Kd menthol / Kd labelled analog)", "setting": "TRPM8 Y745F", "value": "1.55E+00"}, {"measurement": "Energy, Ave", "setting": "TRPM8 Y745F; [1]", "value": -0.32}, {"measurement": "Omega(X1/X2)", "setting": "TRPM8 Y745F; menthol vs labelled analog", "value": 0.58}, {"measurement": "Coupling Energy", "setting": "TRPM8 Y745F; [2]", "value": 0.54, "unit": "kT"}, {"measurement": "Ratio X2 (Kd menthol / Kd labelled analog)", "setting": "TRPM8 V775A", "value": 2.4876}, {"measurement": "Energy, Ave", "setting": "TRPM8 V775A; [1]", "value": -0.60}, {"measurement": "Omega(X1/X2)", "setting": "TRPM8 V775A; menthol vs labelled analog", "value": 0.36}, {"measurement": "Coupling Energy", "setting": "TRPM8 V775A; [2]", "value": 1.01, "unit": "kT"}, {"measurement": "L (equilibrium constant between closed and open states upon ligand binding), Ave", "setting": "wild-type TRPM8; WT", "value": 2.233}, {"measurement": "Ratio X1 (Kd menthol / Kd labelled analog)", "setting": "wild-type TRPM8; WT", "value": 0.9034}, {"measurement": "concentration–response curve value, ave", "setting": "wild-type TRPM8; WT, 100 microM", "value": 0.06552}, {"measurement": "concentration–response curve value, ave", "setting": "wild-type TRPM8; WT, 200 microM", "value": 0.185}, {"measurement": "concentration–response curve value, ave", "setting": "wild-type TRPM8; WT, 500 microM", "value": 0.4757}, {"measurement": "concentration–response curve value, single recording", "setting": "wild-type TRPM8; WT, 500 microM", "value": "0.4347 and 0.5954 and 0.3968"}, {"measurement": "concentration–response curve value, ave", "setting": "wild-type TRPM8; WT, 1000 microM", "value": 0.5625}, {"measurement": "concentration–response curve value, single recording", "setting": "wild-type TRPM8; WT, 1000 microM", "value": "0.5176 and 0.6462 and 0.5237"}, {"measurement": "concentration–response curve value, ave", "setting": "wild-type TRPM8; WT, 5000 microM", "value": 0.6452}, {"measurement": "concentration–response curve value, single recording", "setting": "wild-type TRPM8; WT, 5000 microM", "value": "0.5498 and 0.7014 and 0.6843"}, {"measurement": "concentration–response curve value, ave", "setting": "wild-type TRPM8; WT, 10000 microM", "value": 0.6337}, {"measurement": "concentration–response curve value, single recording", "setting": "wild-type TRPM8; WT, 10000 microM", "value": "0.5212 and 0.6983 and 0.6816"}, {"measurement": "Kd", "setting": "wild-type TRPM8; WT, calculated from concentration–response curves (EC50 and Po max), read-out: Kd, Ave", "value": 1050, "unit": "µM"}, {"measurement": "Kd", "setting": "wild-type TRPM8; WT, read-out: Kd, single recording", "value": "1320 µM and 824 µM and 542 µM and 812 µM and 1460 µM and 617 µM and 1260 µM and 1590 µM"}]}
